Molecules are shown by their SMILES.

The data set in a line: gradient 5% acetonitrile 3 min, to 50% in 2 min, to 85% in 15 min, held 3 min, 100 µL/min. The conditions noted are these: column: Zorbax Extend-C18 2.1 x 50 mm; eluents: water / acetonitrile, 0.1% formic acid. The gist of the method: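 Data were gathered over 3 months by HPLC coupled to a quadrupole time-of-flight mass spectrometer, operated in positive and negative ionization mode. Mixtures of ~100 pure standards ran on a Zorbax Extend-C18 column (2.1 × 50 mm, 1.8 μm) at 100 μL/min, with water and acetonitrile each containing 0.1% formic acid and dead and dwell volumes of 40 μL and 900 μL. Retention time was read from adduct peaks picked by computer and checked manually.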
`Cc1ccc(-n2ncc3c(C)nn(CC(=O)Nc4cc(C)on4)c(=O)c32)c(C)c1`: the RP-LC retention time stood at 775 s. `COc1ccc(C2(C(=O)N3CCC(Cc4nc(-c5ccccc5)n[nH]4)C3)CC2)cc1` (centres undefined): the RP-LC retention time was 734 s.

As to `CCOC(=O)c1noc2ncnc(N3CCN(c4cccc(Cl)c4)CC3)c12`, the RP-LC retention time worked out at 1150 s. As for `COc1ccc2c(c1)-c1nc(NC(=O)c3ccc(OC)c(Br)c3)sc1CC2`, the figure is 1220 s; as for `Cc1cc(NC(=O)N2CCN(CCn3c(C)nc4cccnc43)CC2)ccc1Br`, 641 s.

Compound `O=C(c1ccc(Cl)cc1)N1CCCN(c2nnc3ccccn23)CC1` yielded an RP-LC retention time of 650 s. For `CCCCn1cc(S(=O)(=O)Nc2ccc(F)cc2Cl)c2cccnc21` the value was 862 s; for `O=C1CC(C(F)(F)F)c2c(c(C(=O)O)cn2-c2ccc(Cl)cc2)N1` (centres undefined), 786 s; for `O=C(NCC(c1cccnc1)c1c[nH]c2ccccc12)Nc1ccc(Br)cc1F` (centres undefined), 716 s. Regarding `COc1ccc(-c2cn3c(CC(=O)NC4CC4)csc3n2)cc1OC`, the RP-LC retention time came out at 607 s. In turn, `CCc1noc(-c2cccnc2N2CCCN(Cc3cccc(C)c3)CC2)n1` returned an RP-LC retention time of 690 s. For `O=C(Nc1cccc(Br)c1)NC1CCN(c2ccc(F)cc2)C1=O` (centres undefined) the value was 818 s; for `CCOc1ccc(NC(=O)c2oc3cc(Br)ccc3c2C)c2cccnc12`, 800 s; for `COC(=O)c1ccc2c(=O)n(-c3ccc(C)c(F)c3)c(N3CCOCC3)nc2c1`, 975 s. On to `O=C(NCc1ccco1)N1c2ccccc2CC1c1nc(C2CC2)no1` (centres undefined), for which the RP-LC retention time was found to be 891 s. The compound `O=C(Cn1c(=O)c(CCC(=O)NC2CCCC2)nc2ccccc21)Nc1ccc(F)c(F)c1` came in with an RP-LC retention time of 825 s.

`Cc1ccc(C2NC(=O)N(CC(=O)Nc3ccc(Br)cc3F)C3=C2C(=O)OC3)cc1` (centres undefined): the RP-LC retention time turned out to be 861 s. In turn, `O=C(CN1CCN(c2ncccn2)CC1)N1c2ccccc2Sc2ccccc21` registered an RP-LC retention time of 602 s. `COCc1nc2cccnc2n1C1CCN(C(=O)Nc2cc(C)cc(C)c2)CC1` came in with an RP-LC retention time of 747 s. As for `Cc1ccc(CNC(=O)Cn2ncc3c(N4CCN(c5ccccn5)CC4)ncnc32)cc1`, the figure is 615 s; as for `COc1ccc(Cl)cc1NC(=O)c1c(O)c2cccnc2n(-c2cccc(F)c2)c1=O`, 1330 s; as for `Cc1ccc(NC(=O)Cn2nc(N(C)C)c3ccccc3c2=O)cc1Cl`, 958 s.

For the compound `O=C(NCc1ccco1)c1nc2ccccn2c1-c1ccsc1`, the RP-LC retention time is 761 s. For `CN1CCc2c(c(CNC(=O)c3cc(CN4CCOCC4)on3)nn2C)C1` the value was 770 s; for `Cc1nc(Nc2ccc(F)cn2)sc1C(=O)N1CCC2(CC1)OCCO2`, 686 s; for `Cc1cc(C)n2nc(SCC(=O)NCCc3ccccc3)nc2n1`, 689 s. For `COc1ccc(OC)c(Nc2c(-c3ccc(C)cc3)nc3cnccn23)c1` the value was 911 s; for `COc1ccc(OC)c(S(=O)(=O)N2CC(N3CC(C(=O)N4CCCC4)CC3=O)C2)c1` (centres undefined), 666 s. Take `Cc1ccccc1NC(=O)C(=O)Nc1ccccc1C`: the RP-LC retention time was 1080 s.

Regarding `COc1ccc(Nc2c(C(=O)N3CCCCC3C)cnc3nc(C)ccc23)cc1OC` (centres undefined), the RP-LC retention time came out at 598 s. As to `Cc1cnc(CCC2CCCN2C(=O)c2ccc(Cn3cncn3)o2)n1C(C)C` (centres undefined), the RP-LC retention time is 626 s.

Regarding `O=C(O)c1nnn(-c2ccc(Cl)cc2)c1-c1ccncc1`, the RP-LC retention time was determined as 663 s. The compound `CCN1CCN(CCCNC(=O)Cn2c(-c3cccs3)cc3ccccc32)CC1` returned an RP-LC retention time of 722 s. Compound `O=C1CCCCC(CNC(=O)c2n[nH]c(=O)c3ccccc23)N1` (centres undefined) registered an RP-LC retention time of 604 s. For the compound `CN(Cc1nc2cc(C(=O)N3CCCC3)ccc2n1C)C(=O)Nc1ccc(Cl)cc1`, the RP-LC retention time is 654 s. `C1CCc2nc3c(nc2C1)CCCC3` displayed an RP-LC retention time of 722 s. As for `CC1CCN(C(=O)C2CCc3sc(C(=O)N4CCOCC4)cc3C2)CC1` (centres undefined), the figure is 776 s; as for `COc1cc(O)ccc1-c1nc2cc(C)ccn2c1Nc1ccccc1C`, 673 s. As for `CCc1ccc(CN2C(=O)CN(S(C)(=O)=O)CC2(C)C(=O)NCc2ccccc2)cc1` (centres undefined), the figure is 868 s. As for `CSc1ccc(CNC(=O)Cn2c(C)cc(C)c(C#N)c2=O)cc1`, the figure is 698 s; as for `CCc1cccc(NC(=O)C2CCN(S(=O)(=O)c3ccc4c(c3)CC(C)N4C(C)=O)CC2)c1` (centres undefined), 942 s; as for `Cc1cc(S(=O)(=O)N2CCN(C3CCN(Cc4ccccn4)C3=O)CC2)ccc1Cl` (centres undefined), 622 s. `O=S(=O)(c1c(Cl)cccc1Cl)N1CCN(Cc2ccc3c(c2)OCO3)CC1`: the RP-LC retention time came out at 595 s.

Regarding `O=C(CCCN1C(=O)c2cccc3cccc(c23)C1=O)N1CCN(c2ncccn2)CC1`, the RP-LC retention time worked out at 723 s.

As for `Cc1cc2c(=O)n(CC(=O)Nc3ccc(F)cc3C)ccc2s1`, the RP-LC retention time was 762 s. As for `Cc1ccccc1Nc1c(-c2ccc(N3CCOCC3)cc2)nc2c(C)cccn12`, the figure is 729 s; as for `Cc1nnc(-c2ccc3ccn(CC(=O)Nc4ccc(F)cc4)c3c2)o1`, 795 s. As for `CNC(=O)c1ccc(Nc2c(-c3ccc(OC)cc3)nc3cnccn23)cc1`, the figure is 643 s; as for `COc1ccccc1CC(=O)Nc1ccc2c(c1)CCC(=O)N2C`, 721 s; as for `Cn1c(N2CCN(C(=O)COc3ccc(Cl)cc3)CC2)cc(=O)n(C)c1=O`, 666 s. As for `CS(=O)(=O)NCCc1ccc(CC2CCNCC2)cc1`, the figure is 588 s; as for `CCCn1c(=O)c(N2CCN(C(=O)C3CCC3)CC2)nc2ccccc21`, 994 s. `O=[N+]([O-])c1c(-c2nc3ccc(Cl)cn3c2Nc2ccc(Cl)cc2)ccc2c1OCO2` had an RP-LC retention time of 1000 s. For `CCOc1ccc(S(=O)(=O)N2CCCC(C(=O)N3CCN(c4ccccc4)CC3)C2)cc1` (centres undefined) the value was 1020 s; for `COc1cc(-c2nnc(/C=C/c3cccs3)o2)cc(OC)c1OC`, 886 s. As for `CCNC(=O)C1CCCN(c2nc3ncn(CC(=O)Nc4ccccc4Cl)c(=O)c3s2)C1` (centres undefined), the figure is 664 s. As for `CCc1cc(C(=O)Nc2ccccc2)nc2ccnn12`, the figure is 960 s. `COc1ccc(C(=O)N2CCC3(CC2)NCc2ccccc2-n2ccnc23)cc1OC` came in with an RP-LC retention time of 594 s. For `CCOC(=O)c1ccc(NC(=O)C2CCN(S(=O)(=O)c3ccc4[nH]c(=O)ccc4c3)CC2)cc1` the value was 783 s; for `CC(=O)N1CCc2cc(N3CC(C(=O)N4CCN(c5ccccn5)CC4)CC3=O)ccc21` (centres undefined), 566 s.

On to `CC12C=CC(O1)C1C(=O)N(c3ccc(N4CCOCC4)cc3)C(=O)C12` (centres undefined), for which the RP-LC retention time was determined as 662 s. As for `COc1ccc(C(=O)Nc2nc(-c3ccc4c(c3)NC(=O)C(C)O4)c(C)s2)cc1OC` (centres undefined), the figure is 867 s. For `CCCN1C(=O)c2c(C(=O)NCCC(C)C)ncn2CC1(C)C(=O)NCc1ccc(F)cc1` (centres undefined) the value was 824 s; for `CCOc1ccccc1NC(=O)C1CCN(S(=O)(=O)c2ccc3[nH]c(=O)ccc3c2)CC1`, 789 s. For `CC(C)(C)C(=O)Nc1cnc(-c2cccc(Cl)c2)nc1` the value was 1070 s; for `CCOc1ccc(-c2nc(CN3CCN(C(=O)NC4CCCCC4)CC3)c(C)o2)cc1`, 718 s. For the compound `CN(C(=O)c1cn(-c2ccc(-c3nc(C4CC4)no3)cn2)cn1)C1CCCCC1`, the RP-LC retention time amounted to 971 s. As for `O=C(Cn1c(=O)oc2ccccc21)NCCc1csc2nc(-c3ccccc3F)nn12`, the figure is 746 s. As for `Cc1cc(C)cc(NC(=O)Nc2ccc3nncn3c2)c1`, the figure is 738 s; as for `CC(C)(C)NC(=O)N1CCC2(CC1)CN(c1ccccc1)C2=O`, 788 s; as for `CC(C)Oc1ccc(-c2noc(Cn3ncn4nc(-c5cccs5)cc4c3=O)n2)cc1`, 1150 s. Compound `COc1cc(NC(=O)c2noc3c2CC(C)CC3)cc(OC)c1OC` (centres undefined) showed an RP-LC retention time of 932 s. For `CC1Oc2ccc(-c3csc(NC(=O)C(C)(C)C)n3)cc2N(C)C1=O` (centres undefined) the value was 963 s; for `COc1ccc(OC)c(NC(=O)C2CCN(S(=O)(=O)c3ccc4c(c3)sc(=O)n4C)CC2)c1`, 840 s. In the case of `O=C(O)C1c2ccccc2CC(=O)N1Cc1ccccc1` (centres undefined), the RP-LC retention time was 723 s. For `CS(=O)(=O)N1CCC(C(=O)NCC2CCN(C(=O)Nc3ccc(F)cc3)CC2)CC1` the value was 622 s. Compound `Cc1oc2ccn(Cc3ccc(F)cc3)c(=O)c2c1C(=O)NCc1cc(F)cc(F)c1` returned an RP-LC retention time of 1130 s. For `CCc1ccccc1S(=O)(=O)N1CCC(n2cnnc2CC)CC1` the value was 595 s; for `CC(C)N1C(=O)c2cccnc2Sc2cc(NC(=O)c3ccncc3)ccc21`, 662 s.

These data come from the METLIN SMRT retention time set (Domingo-Almenara et al. 2019).
